# Experimental data taken from article PMC12018048, “Intranasal kisspeptin administration rapidly stimulates gonadotropin release in humans” (eBioMedicine, 2025).
# Legend:
# plasma LH = assay: Intranasal kisspeptin-54, plasma LH in adult C57BL/6J male mice; type: in vivo, mouse; settings: for Peak plasma LH level / Integrated LH response, AUC: mean ± SEM; for Peak plasma LH level, mean difference vs placebo: two-way ANOVA; for Integrated LH response, AUC: sampling over 70 min
# Experimental: Saline (placebo) or kisspeptin-54 were intranasally administered using a customised and unsharpened 2 mm long and 0.3 mm wide hypodermic needle (BD PrecisionGlide™; 30G; ref. 305106). Male mice were restrained and a single volume of 30 μL of the solution was delivered in one randomly chosen nostril with either 0.9% saline or different concentrations of kisspeptin-54 (1, 3, 12.8, 30, or 50 nM; equivalent to 0.001–0.05 nmol/kg). The protocol involved N = 5 mice per group, except concentrations 12.8 nM where N = 6 and 30 nM where N = 7. […] LH levels were assessed using a tail-tip serial blood sampling as previously reported.[64]^,[65] Briefly, samples containing 4 μL of whole blood were collected every 10 min over a 70-min-long period from each animal. The first sampling point was taken as baseline LH level (−5 min), and saline or kisspeptin-54 were administered at timepoint 0 min. Whole blood was collected into Eppendorf tubes pre-loaded with 50 μL of 0.1 M phosphate-buffered saline (PBS)-0.05% Tween, thoroughly mixed, and snap-frozen with dry ice and stored at −80 °C.
# LH levels were measured using an established in-house and ultrasensitive mouse LH ELISA method as previously validated.[66] A primary coating antibody (bovine LHβ subunit, 518B7; L. Sibley; University of California, UC Davis, RRID AB_2756886) was used at a 1:1000 dilution in combination with a detection primary antibody (rabbit LH antiserum, AFP240580Rb, RRID AB_2665533; NIDDK- NHPP) used at 1:10,000 dilution, and a secondary horseradish peroxidase-conjugated antibody (goat anti-rabbit; Vector Laboratories, PI-1000, RRID AB_2336198) used at 1:10,000 dilution. The assay standard curve used a mouse LH-RP (AFP5306A, A. F. Parlow, National Hormone and Peptide Program; supplied by Golden West BioSolutions, California, USA; catalogue # TLIA1053.03). The assay sensitivity of this LH ELISA was 0.04 ng/mL, intra-assay coefficient of variation 4.1%, and inter-assay coefficient of variation 7.3%.
# Statistical analyses were performed using GraphPad Prism (version 9.4.1). Data are presented as mean ± SEM. Normality of the data was determined using the Shapiro–Wilk test. The analysis considered increment in LH levels when average post-administration values were above significance (P < 0.05) compared to basal levels (−5 min) using repeated measures two-way ANOVA with Fishers least significant difference (LSD) test. Integrated LH response to kisspeptin-54 administration as indicated using the area under the curve (AUC) analysis when all peaks were above baseline values. The difference in AUC between groups was compared by one-way ANOVA with Fisher’s LSD test. In all cases, P < 0.05 was considered statistically significant.
# [1] = Stability of kisspeptin-54 solutions for nasal delivery; type: physicochemical; settings: for Reduction of the initial concentration: after 60 days, HPLC; for % of initial concentration: chemical stability, 3.5 mg/mL in 0.9% saline, HPLC-UV 220 nm, mean ± SEM, N = 3
# Experimental: Kisspeptin-54 3.5 mg/mL solutions, equivalent to the lowest dose used in the human clinical study, were prepared and aliquoted into glass nasal spray devices and sealed amber glass vials (airtight, light protected control). The test materials were stored upright in a single location (4 °C refrigerator with temperature monitoring) with minimal manipulation or movement for 60 days. On each day of analysis, three aliquots were sampled from each container and analysed by HPLC.
# Each kisspeptin-54 sample was assayed in triplicate using a Waters 2795 Separation Module HPLC equipped with Waters 2996 Photodiode Array Detector and a Luna® 3 μm C18 100 Å LC Column 150 × 4.6 mm with trimethylsilyl (TMS) end capping used. Injection volume was 25 μL and the mobile phase was a gradient using eluent A (0.05% trifluoroacetic acid (TFA):1% acetonitrile (ACN): 98.95% H20) and eluent B (0.05% TFA in MeOH/ACN 1:1(V/V)) from 20 to 60% eluent B with a flow rate of 1 mL/min and a run time of 15 min. Column temperature was set at 40 °C and ultraviolet (UV) detection at 220 nm. The assay was validated for linearity (r = 0.993), accuracy and precision in the range 0.3–0.7 mg/mL.
# serum LH = settings: cited from earlier work
# Experimental: This was the first study to examine the effects of intranasal kisspeptin administration on reproductive hormone secretion in humans. […] We have previously examined a single intravenous bolus of 6.4, 12.8, and 25.6 nmol/kg of kisspeptin-54 in healthy men.[59] In that study, peak LH levels occurred 4–6 h after intravenous kisspeptin administration with a maximal increase from baseline of 8–10 IU/L for the three doses tested.[59] In the current study, a far more rapid increase in serum LH was observed after intranasal kisspeptin for all four doses tested with peak LH stimulation (4.45 IU/L abo ...
# [2] = parameters: method as in PMID 37467734; settings: intravenous and subcutaneous routes, over 1000 healthy men and women and patients; cited from earlier work
substance,measurement,setting,value
Kisspeptin-54,"LH AUC, mean difference vs kisspeptin 1 nM",plasma LH; intranasal 3 nM vs 1 nM,3.6 ng·h/mL
same,Time of peak LH level after intranasal administration,plasma LH; intranasal 12.8 nM,25 min
same,"LH AUC, mean difference vs kisspeptin 1 nM",plasma LH; intranasal 12.8 nM vs 1 nM,22.7 ng·h/mL
same,"LH AUC, mean difference vs kisspeptin 3 nM",plasma LH; intranasal 12.8 nM vs 3 nM,19.1 ng·h/mL
same,"LH AUC, mean difference vs placebo",plasma LH; intranasal 12.8 nM vs placebo,17.2 ng·h/mL
same,Peak plasma LH level,"plasma LH; intranasal 12.8 nM, at 25 min, N = 6",1.9 ± 0.4 ng/mL
same,"Peak plasma LH level, mean difference vs placebo","plasma LH; intranasal 12.8 nM, at 25 min",1.1 ng/mL
same,Time of peak LH level after intranasal administration,plasma LH; intranasal 30 nM,25 min
same,"LH AUC, mean difference vs kisspeptin 1 nM",plasma LH; intranasal 30 nM vs 1 nM,74.2 ng·h/mL
same,"LH AUC, mean difference vs kisspeptin 3 nM",plasma LH; intranasal 30 nM vs 3 nM,70.7 ng·h/mL
same,"LH AUC, mean difference vs kisspeptin 12.8 nM",plasma LH; intranasal 30 nM vs 12.8 nM,51.6 ng·h/mL
same,"LH AUC, mean difference vs placebo",plasma LH; intranasal 30 nM vs placebo,68.7 ng·h/mL
same,Peak plasma LH level,"plasma LH; intranasal 30 nM, at 25 min, N = 7",3.6 ± 0.4 ng/mL
same,"Peak plasma LH level, mean difference vs placebo","plasma LH; intranasal 30 nM, at 25 min",2.8 ng/mL
same,Time of peak LH level after intranasal administration,plasma LH; intranasal 50 nM,15 min
same,"LH AUC, mean difference vs kisspeptin 1 nM",plasma LH; intranasal 50 nM vs 1 nM,92.8 ng·h/mL
same,"LH AUC, mean difference vs kisspeptin 3 nM",plasma LH; intranasal 50 nM vs 3 nM,89.3 ng·h/mL
same,"LH AUC, mean difference vs kisspeptin 12.8 nM",plasma LH; intranasal 50 nM vs 12.8 nM,70.2 ng·h/mL
same,"LH AUC, mean difference vs kisspeptin 30 nM",plasma LH; intranasal 50 nM vs 30 nM,18.6 ng·h/mL
same,"LH AUC, mean difference vs placebo",plasma LH; intranasal 50 nM vs placebo,87.3 ng·h/mL
same,Peak plasma LH level,"plasma LH; intranasal 50 nM, at 15 min, N = 5",4.0 ± 1.0 ng/mL
same,"Peak plasma LH level, mean difference vs placebo","plasma LH; intranasal 50 nM, at 15 min",2.9 ng/mL
same,"Integrated LH response, AUC","plasma LH; intranasal 30 μL of 1 nM, N = 5",75.5 ± 6.3 ng·h/mL
same,"Integrated LH response, AUC","plasma LH; intranasal 30 μL of 3 nM, N = 5",79.1 ± 5.8 ng·h/mL
same,"Integrated LH response, AUC","plasma LH; intranasal 30 μL of 12.8 nM, N = 6",98.2 ± 15.5 ng·h/mL
same,"Integrated LH response, AUC","plasma LH; intranasal 30 μL of 30 nM, N = 7",149.7 ± 13.3 ng·h/mL
same,"Integrated LH response, AUC","plasma LH; intranasal 30 μL of 50 nM, N = 5",168.3 ± 38.5 ng·h/mL
same,"Adverse effects leading to pain, distress, or illness","plasma LH; intranasal, first 72-h follow-up period",did not observe any adverse effects
same,Time within pharmaceutically accepted limits for stability,"[1]; 0.9% saline solution, 4 °C",up to 60 days
same,Appearance of the solution (clear when freshly made),"[1]; 0.9% saline, 4 °C, 60 days of storage, either container type",no change was observed
same,Reduction of the initial concentration,"[1]; 0.9% saline, 4 °C, glass nasal spray devices",5.4%
same,Reduction of the initial concentration,"[1]; 0.9% saline, 4 °C, sealed amber glass vials",5.0%
same,% of initial concentration,"[1]; 4 °C in nasal spray, 4 days",98.06 ± 1.11%
same,% of initial concentration,"[1]; 4 °C in nasal spray, 7 days",98.28 ± 0.69%
same,% of initial concentration,"[1]; 4 °C in nasal spray, 14 days",97.90 ± 0.67%
same,% of initial concentration,"[1]; 4 °C in nasal spray, 28 days",96.11 ± 0.51%
same,% of initial concentration,"[1]; 4 °C in nasal spray, 60 days",94.56 ± 1.67%
same,% of initial concentration,"[1]; 4 °C in sealed amber vial, 4 days",98.94 ± 0.57%
same,% of initial concentration,"[1]; 4 °C in sealed amber vial, 7 days",98.69 ± 0.58%
same,% of initial concentration,"[1]; 4 °C in sealed amber vial, 14 days",97.91 ± 0.64%
same,% of initial concentration,"[1]; 4 °C in sealed amber vial, 28 days",97.32 ± 0.56%
same,% of initial concentration,"[1]; 4 °C in sealed amber vial, 60 days",95.01 ± 1.45%
same,Maximal increase from baseline in LH,"serum LH; healthy men, single intravenous bolus of 6.4, 12.8, and 25.6 nmol/kg",8–10 IU/L
same,"Increase in serum LH, mean","serum LH; healthy volunteers, intravenous, standard deviation 0.4 IU/L",10.2 IU/L
same,Adverse effects,[2],without any observed adverse effects
